The source of these data is PubChem BioAssay AID624265 (Broad Institute, 2012).

The structures appear in SMILES notation. Values joined by “and” are separate entries in the source; they are usually repeats but may differ in a detail not shown here. Identical values can stand only once. Active and inactive are the calls of the source.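 Rule for the calls: active = at a dose no more than twice the top valid tested dose, the fitted curve drops below -35% activity change; inactive = the rest, rising-direction activity included.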

The nature of this test: NIH3T3 cell viability loss, ATP content – CellTiter-Glo luminescence, cherry-pick, set 2, cytotoxicity control for HSP40 inhibitor project, dose response (AID 624265).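 Note: cells exposed to compound for 48 hours before the ATP read; 0% = median neutral control signal and -100% = no luminescence left.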 Particulars: NIH3T3 viability, CellTiter-Glo ATP luminescence; at 50 µM (top of the series).
In the case of `O=C(CC1CC2CCC1C2)Nc1nc(-c2ccccn2)cs1` (stereo not given), the activity change, negative = toxicity was 10.2% (inactive).
As for `Cc1cccc(C)c1N1C(=O)C2ON(c3ccccc3)C(c3ccncc3)C2C1=O` (stereo not given), the figure is 15.5% (inactive); as for `CC1=CC(C)(C)N(S(=O)(=O)c2ccc(C)cc2)c2ccc(C)cc21`, 9.86% (inactive).
The same measure for `CCn1c(CNc2ccc(Cl)cc2)nnc1SCc1ccccc1`: -7.39% (inactive); for `c1ccc(-c2ccc(OCCCn3cncn3)cc2)cc1`: 5.17% (inactive).
The same measure for `CCC1=NN(C(=O)c2cccc(Br)c2)C(O)(c2ccc(Br)cc2)C1` (stereo not given): 4.18% (inactive); for `Cc1nc2ccc(C(=O)NCc3ccc4c(c3)OCO4)cc2s1`: 1.22% (inactive); for `CN1CCN(C(=O)c2cc(COc3ccc(F)cc3Cl)on2)CC1c1ccccc1` (stereo not given): 14.2% (inactive).
In the case of `Cc1c(C2(O)CCCCC2)[nH]c2ccc(C(F)(F)F)cc12`, the activity change, negative = toxicity was -6.56% (inactive).
As for `COc1cnc(-c2ccccn2)nc1Sc1ccc(C)cc1`, the figure is -14.4% (inactive); as for `CCCn1nc(C(=O)N2CCN(S(=O)(=O)c3ccc(C)c(C)c3)CC2)c2ccccc2c1=O`, 2.59% (inactive); as for `CC/C(=N/NC(=O)c1ccccc1O)c1c(C)[nH]n(-c2ccccc2)c1=O`, -2.64% (inactive).
As for `O=C(Nc1ccc(Br)c(C(F)(F)F)c1)c1ccccc1`, the figure is -9.98% (inactive).
As for `C(=C1c2ccccc2-c2ccccc21)c1ccncc1`, the figure is 14.2% (inactive); as for `COc1ccc2oc(=O)c(-c3csc(Nc4cccc(O)c4)n3)cc2c1`, 4.36% (inactive); as for `Cc1ccsc1/C=C/c1ccc2cccc(O)c2n1`, -8.21% (inactive).
For the molecule `Clc1ccc(C(Cn2ccnc2)OCc2c(Cl)cccc2Cl)c(Cl)c1` (stereo not given), the activity change, negative = toxicity was 0.224% (inactive).
`CCCCC(=O)NC(=S)NNC(=O)CCc1ccccc1`: the activity change, negative = toxicity was -16.3% (inactive).
As for `COc1cnc(-c2ccccn2)nc1Oc1ccc(C(C)(C)C)cc1`, the figure is 23.5% (inactive); as for `O=S(=O)(c1ccc(Cl)cc1)N1CCC2(CC1)OCCN2S(=O)(=O)c1cccs1`, -0.748% (inactive).
As for `COc1cnc(-c2ccccn2)nc1Sc1ccccc1`, the figure is 9.22% (inactive); as for `O=C(Nc1nnc(-c2ccccc2)o1)c1ccc(Cl)cc1`, 29.9% (inactive).
The same measure for `Cc1ccc(O)c(-c2cc(-c3ccccc3C)[nH]n2)c1`: -5.19% (inactive).
In the case of `CCC(Oc1ccc(Br)cc1Cl)C(=O)Nc1nnc(C2CC2)s1` (stereo not given), the activity change, negative = toxicity is 5.54% (inactive).
The same measure for `O=C1N(c2ccc(Cl)cc2)C(c2cccnc2)N2CCCN12` (stereo not given): 17.3% (inactive).
For the molecule `O=C(O)c1ccccc1NC(c1ccccc1)c1ccc2cccnc2c1O` (stereo not given), the activity change, negative = toxicity is -15.4% (inactive).
As for `C=CCOC(Cn1ccnc1)c1ccc(Cl)cc1Cl` (stereo not given), the figure is 9.44% (inactive); as for `Clc1ccc(C2=NCCN2)cc1`, 6.22% (inactive).
On to `CC(=O)NC(c1ccc(C)cc1)c1cc([N+](=O)[O-])c2cccnc2c1O` (stereo not given), for which the activity change, negative = toxicity is -0.602% (inactive).
The same measure for `C=CCc1ccc(O)c(-c2ccc(O)c(CC=C)c2)c1`: 9.45% (inactive).
The same measure for `O=C(COc1ccccc1F)Nc1nc(-c2ccccn2)cs1`: -8.96% (inactive).
In the case of `CCCC1CCC(c2ccc(/C(N)=N/O)cc2)CC1` (stereo not given), the activity change, negative = toxicity is -4% (inactive).
The same measure for `CCC(C)c1ccc(NC(=S)NCCn2cc(Br)cn2)cc1` (stereo not given): 16.1% (inactive).
As for `Oc1c(CN2CCCC2)cc(COCc2ccccc2)c2cccnc12`, the figure is -2.61% (inactive); as for `Fc1ccc(CCNC(=S)Nc2ccc(F)c(Cl)c2)cc1`, -8.4% (inactive).
The same measure for `CCCCCCC(Cl)(Cn1ccnc1)c1ccccc1` (stereo not given): 16% (inactive); for `CCCn1c2ccccc2c2cc(C(=O)O)ccc21`: -3.19% (inactive).
Consider `Clc1ccc(COC(Cn2ccnc2)c2ccc(Cl)cc2Cl)c(Cl)c1` (stereo not given), for which the activity change, negative = toxicity is 5.58% (inactive) and 0.687% (inactive).
In the case of `O=S1OC(c2ccccc2)c2cc(Cl)ccc21` (stereo not given), the activity change, negative = toxicity was 8.75% (inactive).
The same measure for `Cc1ccc(NS(=O)(=O)c2ccc(N3CCN(c4ccc(O)cc4)CC3)c([N+](=O)[O-])c2)c(C)c1`: 24.6% (inactive).
As to `CN(C)c1nc(SCc2ccc(Cl)cc2)nc2c1CCCC2`, the activity change, negative = toxicity is 9.05% (inactive).
For `COc1cc2c(c(OC)c1OC)-c1ccc(O)c(=O)cc1[C@@H](NC(C)=O)CC2`, the activity change, negative = toxicity was 4.18% (inactive).
As for `CCCOc1ccc2ccccc2c1/C=C1\SC(=O)NC1=O`, the figure is 6.17% (inactive).
`Cc1nc(SCc2ccc(OCCC(C)C)cc2)n[nH]1`: the activity change, negative = toxicity is 3.46% (inactive).
As for `S=C(Nc1ccc(Oc2ccccc2)cc1)NC1CCCCCC1`, the figure is 12.1% (inactive).
The same measure for `O=C1c2ccccc2-n2c1nc1ccccc1c2=O`: -25.8% (inactive); for `C=CCNc1nc(-c2ccccn2)nnc1-c1ccccc1`: -23.8% (inactive).
The same measure for `O=C(c1ccccc1)c1ccc(Cn2cc(-c3ccccc3)nn2)cc1`: 5.39% (inactive); for `C=CCN(CC=C)C(=S)NC(=O)c1ccc(C)c(Br)c1`: 19.7% (inactive); for `CC1(C)C=Cc2c(ccc3c2OC[C@@H](c2ccc(O)cc2O)C3)O1`: 16.2% (inactive).
For the molecule `Clc1ccccc1C(c1ccccc1)(c1ccccc1)n1ccnc1`, the activity change, negative = toxicity was 10.3% (inactive).
As for `COc1ccc(N(C(=O)c2ccncc2)S(=O)(=O)c2ccccc2)cc1`, the figure is -6.26% (inactive).
As for `CCCCCCCn1c(=O)c(C(=O)OC)c(N)c2ccccc21`, the figure is -3.81% (inactive); as for `COC(=O)C1=C(C)NC(C)=C(C(=O)OCC(C)C)C1c1ccccc1[N+](=O)[O-]` (stereo not given), -14.8% (inactive).
As for `C=C(C)COc1ccc(-c2[nH]ncc2-c2ccccc2)c(O)c1`, the figure is -16.4% (inactive).
Turning to `c1ccc(CSc2ccc(-c3ccccn3)nn2)nc1`, the activity change, negative = toxicity was -13% (inactive).
With `O=C(c1ccc(Cl)cc1)N1CCN(c2ccc(F)cc2)CC1`, the activity change, negative = toxicity is 5.81% (inactive).
As for `CC1=NN(C(N)=S)C(=O)C1N=Nc1cccc(Cl)c1C` (stereo not given), the activity change, negative = toxicity was -14.8% (inactive).
As for `O=C(c1ccc(-c2ccccc2)cc1)C1CCCN(C(=O)c2cncs2)C1` (stereo not given), the figure is -8.68% (inactive).
The same measure for `COC(OC)c1ccc(C#N)c(SCc2ccccc2)n1`: -6.85% (inactive).
